Patent US20250297232A1, “BACTERIAL MYELOPEROXIDASE-CATALASE AND APPLICATIONS THEREOF” (UNIVERSITÉ DE BORDEAUX, priority 2022, published 2025)
Where “and” joins values, the source holds several entries; their conditions need not be identical. Identical values can stand only once. Like-named read-outs stand apart in the source and are kept apart here.

What was measured:
[1] = test system: Rhodopirellula baltica RbMPO variant H203A (of SEQ ID NO: 1); assay: Heme reconstitution (apo to holo) by tryptophan fluorescence quenching; type: binding; conditions: H203A 1 μM; 25° C., pH7.5
Method: (§1) Tryptophan fluorescence quenching and recovery can be used to monitor the protein confirmation changes from an “apo” to an “holo” form upon addition of its coenzyme (herein heme).
(§2) The Trp fluorescence quenching experiment was performed in a spectrofluorometric FP8300 with a temperature-controlled stirred-cell (25° C.). […] Sample dilutions were performed in a 50 mM pH7.5 sodium phosphate buffer.

[2] = test system: Rhodopirellula baltica RbMPO variant Q199A (of SEQ ID NO: 1); assay: as above; type: binding; conditions: Q199A 1 μM; 25° C., pH7.5
Method: as §1, §2

[3] = test system: Rhodopirellula baltica RbMPO variant D202A (of SEQ ID NO: 1); assay: as above; type: binding; conditions: D202A 1 μM; 25° C., pH7.5
Method: as §1, §2

[4] = test system: Rhodopirellula baltica RbMPO variant H407A (of SEQ ID NO: 1); assay: as above; type: binding; conditions: H407A 1 μM; 25° C., pH7.5
Method: as §1, §2

[5] = test system: Rhodopirellula baltica RbMPO variant E316A (of SEQ ID NO: 1); assay: as above; type: binding; conditions: E316A 1 μM; 25° C., pH7.5
Method: as §1, §2

[6] = target: Rhodopirellula baltica RbMPO variant D202A, E316A (of SEQ ID NO: 1); assay: as above; type: binding; conditions: E316A 1 μM, 25° C., pH7.5
Method: as §1, §2

[7] = test system: Rhodopirellula baltica RbMPO variant N317M (of SEQ ID NO: 1); assay: as above; type: binding; conditions: N317M 1 μM; 25° C., pH7.5
Method: as §1, §2

[8] = test system: Rhodopirellula baltica RbMPO, wild type, SEQ ID NO: 1; assay: as above; type: binding; conditions: wt RbMPO 1 μM; 25° C., pH7.5
Method: as §1, §2

[9] = test system: Rhodopirellula baltica RbMPO, wild type, SEQ ID NO: 1; conditions: 0.5 nM wt RbMPO, 79 μM H2O2, 37° C., pH5.5
Method: The plate reader was configured to run a 10 min kinetics at 430 nm with the following ABTS concentration range: 0, 0.1, 0.2, 0.5, 1, 2, 5, 10, 15, 20, 30 and 40 mM.

[10] = test system: Rhodopirellula baltica RbMPO, wild type, SEQ ID NO: 1; assay: Pre-steady-state kinetics: compound I formation and return to native state (stopped-flow, 412 nm); type: biochemical; conditions: for Vreturn (Sreturn/[enzyme]) / kreturn max (return to native state) / kreturn/K1/2 (return to native state): wt RbMPO […], H2O2 20 μM; for Ki: H2O2 excess
Method: In the first moment after an enzyme is mixed with a substrate, no product has been formed and no intermediates exist. The study of the next few milliseconds of the reaction is called pre-steady-state kinetics.
Kinetic parameters under pre-steady-state condition were performed with a Biologic SFM400 stopped-flow at 412 nm, 37° C. and with 50 mM sodium phosphate buffer at pH7.5. […] An exponential linear fit was applied to each kinetic using the following formula: […]
where p1 corresponds to the exponential magnitude, p2 to the decay time Tau (s) and
The heme Soret band is at 412 nm for the native Fe^III iron form, which is why the decrease in absorbance was followed at this particular wavelength as a function of time. The rate constant was measured using the A412nm curves as a function of time (data not shown). By applying Eq.4 to the exponential part of each kinetic, the values of Tau (s) were determined and the kobs (s^−1) were calculated.
The return of the enzyme to its native state was studied by the impact of increasing concentrations of (pseudo)-halides substrates on compound I (FIG. 9B). […] It is the time difference (s) between the two characteristic steps that allowed the calculation of the values of the Vreturn(μM^−1.s^−1) values: […]

[11] = test system: Rhodopirellula baltica RbMPO, wild type, SEQ ID NO: 1; conditions: for kcatapp/KMappNaSCN (NaBr range) / kss/[Cl^−] (k2): 79 μM H2O2; for kss/[Cl^−] (k2): NaCl range
Method: (§6) Initial rate measurements under steady state conditions were performed with a BioLogic SFM400 stopped-flow by using a single-mixing mode and an Xe/Hg lamp and a TC100/10 cell. […] At least five 120 s shots were monitored for each value of the substrate range with the following sample rates: 20 μs, 20 ms, 20 ms with 2000 points per period. Slopes were calculated from the average of the shorts for each concentration and kss (s^−1) were determined from the slopes using the following formula:
(§7) The collected data were analysed with Origin software, then saturation curves for each substrate were fitted either by non-linear regression with or without inhibition by excess of substrate (Eq. 1 and 2) with [S]the substrate of interest, or by linear regression (Eq. 3) with a the slope and b the y-intercept.
(§8) The stopped-flow was used to define the steady-state kinetic parameters of RbMPOs. […] From the averages of the curves obtained for each shot, the slopes in Abs.s^−1 were calculated and then converted into kss by the following relation:

[12] = test system: Rhodopirellula baltica RbMPO variant N317M (of SEQ ID NO: 1)
Method: as §6, §7, §8

[13] = test system: Rhodopirellula baltica RbMPO variant H407A (of SEQ ID NO: 1)
Method: as §6, §7
(§9) From the averages of the curves obtained for each shot, the slopes in Abs.s^−1 were calculated and then converted into kss by the following relation:

[14] = test system: Rhodopirellula baltica RbMPO variant Q199A (of SEQ ID NO: 1)
Method: as §6, §7, §8

[15] = test system: Rhodopirellula baltica RbMPO variant D202A (of SEQ ID NO: 1); conditions: pH 7.5
Method: as §6, §7, §8

[16] = test system: Rhodopirellula baltica RbMPO variant E316A (of SEQ ID NO: 1)
Method: as §6, §7, §8

[17] = test system: Rhodopirellula baltica RbMPO variant H407A (of SEQ ID NO: 1); conditions: read-out: KM H2O2; H407A 1 μM; H2O2 range, 500 mM NaCl, 10 μM APF, 37° C., pH7.5
[18] = test system: Rhodopirellula baltica RbMPO, wild type, SEQ ID NO: 1; conditions: 37° C.; for Km: read-out: KM (catalase, H2O2); for Ki: read-out: Ki (catalase, H2O2)
Method: Catalase activity was measured using the stopped-flow set-up, which was configured to measure absorbance decay at 240 nm and at 37° C.

[19] = test system: Rhodopirellula baltica RbMPO variant D202A, E316A (of SEQ ID NO: 1)
From the text: (§3) The chlorination activity of myeloperoxidases can be determined using the aminophenyl fluorescein (APF) probe. One can indeed detect the oxidation of APF (non-fluorescent) by HOCl into fluorescein, a fluorescent molecule that is detectable at λex=485 nm and λem=525 nm. According to such test, the fluorescence measured is proportional to the quantity of fluorescein, which itself is proportional to the quantity of HOCl produced by the myeloperoxidase.
(§4) Measurements of chlorination activity were herein performed in Corning 384-well clear-bottom (flat-bottom) plates with a reaction volume of 20 μL, in triplicate at 37° C., and in a 50 mM NaPi buffer at pH7.5. […] A 10 to 30 minutes kinetic was performed for each range value and the fluorescence intensity was compared to that of the standard fluorescein range. Thus, the measured fluorescence is proportional to the amount of fluorescein, which in turn is proportional to the amount of HOCl produced by the RbMPOs.
(§5) The slopes were measured at the onset of the reaction in order to be in initial velocity. From these values, it was possible to calculate the kss with the following equation: […]

[20] = test system: Rhodopirellula baltica RbMPO variant N317M (of SEQ ID NO: 1); conditions: N317M 1 μM, H2O2 range, 500 mM NaCl, 10 μM APF, 37° C., pH7.5
From the text: as §3, §4, §5

[21] = test system: Rhodopirellula baltica RbMPO variant Q199A (of SEQ ID NO: 1); conditions: Q199A 1 μM, H2O2 range, 500 mM NaCl, 10 μM APF, 37° C., pH7.5
[22] = test system: Rhodopirellula baltica RbMPO variant D202A, E316A (of SEQ ID NO: 1); remark: listed apart in the source
Method: as §6, §7, §9

[23] = test system: Rhodopirellula baltica RbMPO variant H203A (of SEQ ID NO: 1)
Method: as §6, §7, §9

[24] = wt, 300 nM enzyme, 79 μM H2O2, 37° C., pH 7.5
[25] = H2O2, wt RbMPO 1.78 μM, 37° C., pH7.5

C=CC1=C(C)c2cc3[nH]c(cc4nc(cc5[nH]c(cc1n2)c(C)c5CCC(=O)O)C(CCC(=O)O)=C4C)c(C)c3C=C.[Fe+3] [heme]
k2 (heme reconstitution) [1]: 1840 ± 167 M⁻¹ s⁻¹ | k2 (heme reconstitution) [2]: 1720 ± 133 M⁻¹ s⁻¹ | k2 (heme reconstitution) [3]: 302+23.4 M−1 · s−1 | k2 (heme reconstitution) [4]: 1320 ± 18.9 M⁻¹ s⁻¹ | k2 (heme reconstitution) [5]: 418 ± 34 M⁻¹ s⁻¹ | Kd [6]: 10.9 ± 6.14 µM | Kobsmax (heme reconstitution) [6]: 0.28 ± 0.06 s⁻¹ | k2 (heme reconstitution) [7]: 470.2 ± 57.8 M⁻¹ s⁻¹ and 472.2 ± 57.8 M⁻¹ s⁻¹ | k2 (heme reconstitution) [8]: 1430 ± 74.4 M⁻¹ s⁻¹

CCn1c(=NN=c2sc3cc(S(=O)(=O)O)ccc3n2CC)sc2cc(S(=O)(=O)O)ccc21 [ABTS, 2,2′-azino-bis(3-ethylbenzothiazoline-6-sulfonic acid)]
k2 (peroxidase, ABTS) [9]: 10620 ± 1510 M⁻¹ s⁻¹

N#C[S-].[Na+] [NaSCN]
Vreturn (Sreturn/[enzyme]) ([10]; 37° C., pH7.5): 13.65 ± 0.51 s⁻¹ | kreturn max (return to native state) ([10]; 37° C., pH7.5): 25.94 ± 0.97 µM/s | Km ([11]; read-out: KMapp (NaSCN), wt, 300 nM enzyme, 79 μM H2O2, 37° C., pH 7.5): 510 ± 80 µM | kcatapp (NaSCN) [11, 24]: 56.90 ± 6.92 s⁻¹ | k2 (NaSCN) ([12]; pH 7.5): 1074 ± 53 M⁻¹ s⁻¹ | activity in presence of SCN [13]: not active | activity (NaSCN range) [14]: No activity | kcatapp (NaSCN) [15]: 83.54 ± 12.04 s⁻¹ | Km ([15]; read-out: KMapp (NaSCN)): 980 ± 310 µM | k2 (NaSCN) ([16]; pH 7.5): 1936 ± 374 M⁻¹ s⁻¹

I [I^−]
Vreturn (Sreturn/[enzyme]) ([10]; 37° C., pH7.5): 16.66 ± 0.65 s⁻¹ | kreturn max (return to native state) ([10]; 37° C., pH7.5): 31.65 ± 1.23 µM/s

OO [H2O2, hydrogen peroxide]
Kd [10, 25]: 56.9 ± 20.1 µM | kobsmax (compound I formation) [10, 25]: 57.09 ± 8.60 s⁻¹ | Ki ([10]; read-out: Ki (compound I formation, text)): 10.9 mM | Ki ([10]; wt RbMPO 1.78 μM, 37° C., pH7.5, read-out: Ki (compound I formation)): 10.9 ± 3 mM | Km [17]: 270 ± 90 µM | kcatapp (H2O2) ([11]; H2O2 range, Br 100 mM, 267 nM wt RbMPO): 113.72 ± 72.11 s⁻¹ | kcatapp (H2O2) ([11]; H2O2 range, SCN 5 mM, 267 nM wt RbMPO): 203.24 ± 45.46 s⁻¹ | Km ([11]; read-out: KMapp (H2O2), H2O2 range, Br 100 mM, 267 nM wt RbMPO): 230 ± 210 µM | Km ([11]; read-out: KMapp (H2O2), H2O2 range, SCN 5 mM, 267 nM wt RbMPO): 120 ± 40 µM | kcat (catalase, H2O2) ([18]; pH 7, 2 μM wt RbMPO): 1.62 ± 0.86 s⁻¹ | kcat (catalase, H2O2) ([18]; pH 7.5, 2 μM wt RbMPO): 56.64 ± 20.62 s⁻¹ | Km ([18]; pH 7, 2 μM wt RbMPO): 40 ± 40 µM | Km ([18]; pH 7.5, 2 μM wt RbMPO): 170 ± 110 µM | Ki ([18]; pH 7, 2 μM wt RbMPO): 540 ± 570 µM | Ki ([18]; pH 7.5, 2 μM wt RbMPO): 1070 ± 700 µM | Km ([19]; read-out: KM H2O2, E316A 1 μM, H2O2 range, 500 mM NaCl, 10 μM APF, 37° C., pH7.5): 220 ± 60 µM | Ki ([19]; read-out: Ki H2O2, E316A 1 μM, H2O2 range, 500 mM NaCl, 10 μM APF, 37° C., pH7.5): 96.3 ± 31.9 mM | Km ([20]; read-out: KM H2O2): 320 ± 90 µM | Ki ([20]; read-out: Ki H2O2): 48.1 ± 15.4 mM | Km ([21]; read-out: KM H2O2): 490 ± 150 µM | Ki ([21]; read-out: Ki H2O2): 18.3 ± 5.34 mM

[Br-].[Na+] [NaBr]
Vreturn (Sreturn/[enzyme]) ([10]; 37° C., pH7.5): 11.11 ± 0.57 s⁻¹ | kreturn max (return to native state) ([10]; 37° C., pH7.5): 21.11 ± 1.09 µM/s | kreturn/K1/2 (return to native state) ([10]; 37° C., pH7.5): 607.77 ± 161.51 M⁻¹ s⁻¹ | Km ([11]; read-out: KMapp (NaBr), wt, 300 nM enzyme, 79 μM H2O2, 37° C., pH 7.5): 133000 ± 32800 µM | kcatapp (NaBr) [11, 24]: 76.33 ± 5.12 s⁻¹ | kcatapp/KMappNaSCN (NaBr range) ([11]; wt, 300 nM enzyme): 576.86 ± 172.22 M⁻¹ s⁻¹ | kcatapp/KMappNaSCN (NaBr range) ([11]; wt, 300 nM enzyme, listed as Br^−): 576.96 ± 172.22 M⁻¹ s⁻¹ | activity (NaBr range) [22]: No activity | kss/[SCN^−] (NaBr range) [12]: 2.22 ± 1.20 M⁻¹ s⁻¹ | kss/[SCN^−] (NaBr range) [14]: 78.19 ± 22.00 M⁻¹ s⁻¹ | kss/[SCN^−] (NaBr range) [23]: 73.94 ± 15.07 M⁻¹ s⁻¹ | activity (NaBr range) [16]: No activity

[Cl-].[Na+] [NaCl]
Vreturn (Sreturn/[enzyme]) ([10]; 37° C., pH7.5): 1.37 ± 0.19 s⁻¹ | kreturn max (return to native state) ([10]; 37° C., pH7.5): 2.61 ± 0.37 µM/s | kreturn/K1/2 (return to native state) ([10]; 37° C., pH7.5): 5169 ± 4872 M⁻¹ s⁻¹ | kss/[Cl^−] (k2) ([11]; wt, 300 nM enzyme): 5.46 ± 0.67 M⁻¹ s⁻¹ | kss/[Cl^−] (k2) ([11]; wt, 300 nM enzyme, listed as Cl^−): 4.48 ± 0.64 M⁻¹ s⁻¹
